Data: article PMC3552018 (Insect molecular biology, 2012)

Target: T1, LUSH (Drosophila melanogaster, UniProt O02372)
T1 sequence (O02372 30-153): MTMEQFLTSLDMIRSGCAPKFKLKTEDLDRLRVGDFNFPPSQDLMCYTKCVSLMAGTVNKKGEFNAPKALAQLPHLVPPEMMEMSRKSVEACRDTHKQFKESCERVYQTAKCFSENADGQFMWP
Assay type: binding

Kd [nM]	Structure (SMILES)
215	CCC/C=C\C=C\CCCCCCCCCO [bombykol]
108	CCCCCC/C=C\CCCCCCCCCCOC(C)=O [cVA, 11-cis vaccenyl acetate]
